# Assay results as given in US20260152395A1, “SUSTAINED-RELEASE CHLORINE DIOXIDE GAS […] AND METHOD” (ABC MEDICAL CO., LTD., priority 2022, published 2026).
# Experiment: Chlorine dioxide generation test 1: organic substance added to sodium chlorite solution, reactivity observed
# Format: physicochemical
# Design: key: high reaction rate (+++++) resulted in the initiation of chlorine dioxide gas generation relatively quickly within several hours to several days after the addition; intermediate reaction rate (+++) resulted in the initiation of chlorine dioxide gas generation within several days to several tens of days after the addition; The reaction initiation time of the organic substances with a slow reaction rate (+) is hard to specify
# Settings: organic substance added to 23% aqueous sodium chlorite; room temperature and refrigerated temperature
# Method: To investigate the reactivity with and the risk of sodium chlorite depending on the type of organic substance, each of organic substances in Table 1 was added to a 23% aqueous solution of sodium chlorite to observe the reactivity at room temperature and refrigerated temperature.
row,Structure (SMILES),Reaction rate
1,[Ca+2].[OH-].[OH-] [Calcium hydroxide],No reaction
2,CCO [Ethanol],+++++
3,OC[C@H]1O[C@H](O[C@H]2O[C@H](CO)[C@@H](O)[C@H](O)[C@H]2O)[C@H](O)[C@@H](O)[C@@H]1O [Trehalose],+++
4,O=C(CO)[C@@H](O)[C@H](O)[C@H](O)CO [Fructose],+++
5,OCC(O)CO [Glycerol],+++++
6,O=C1NS(=O)(=O)c2ccccc21.[Na] [Sodium saccharin],+++
7,[O]=[Ca] [Calcium oxide],No reaction
8,[Na+].[OH-] [Sodium hydroxide],No reaction
9,OO [Hydrogen peroxide],No reaction
10,[Cl-].[Na+] [Salt],No reaction
11,OC[C@@H](O)[C@@H](O)[C@H](O)[C@@H](O)CO [Sorbitol],+++
12,OC[C@H]1O[C@@](CO)(O[C@H]2O[C@H](CO)[C@@H](O)[C@H](O)[C@H]2O)[C@@H](O)[C@@H]1O [Sucrose],+++
13,O=C([O-])[O-].[Na+].[Na+] [Sodium carbonate],+
14,N[C@@H](CCC(=O)[O-])C(=O)[O-].[Na+].[Na+] [Sodium glutamate],+++++
15,[K+].[OH-] [Potassium hydroxide],No reaction
